Data on one substance can be found in patent US7951778B2, “Use of compounds having the biological activity of vasoactive intestinal peptide for the treatment of sarcoidosis” (mondoBIOTECH AG, priority 2002, dated 2011).

Common to all, as to type: in vivo, human
Test [1] concerns patient with severe sarcoidosis stadium 3 and secondary pulmonary hypertension. The test is described as follows: Hemodynamic parameters by right heart catheterization before and after 12 weeks VIP inhalation. The following applies: VIP inhalation 200 μg per day. The procedure:
(§1) A patient with severe sarcoidosis stadium 3 and secondary pulmonary hypertension was under therapy with cortocosteroids, furosemid, oxygen and an anticoagulant. Right heart catheterization (Swan-Ganz, Baxter, Irvine, Calif., USA) was performed to measure mean pulmonary artery pressure (mPAP), cardiac output (CO), mean arterial pressure (MAP), pulmonary capillary wedge pressure (PCWP) mixed venous oxygen saturation (SvO2%) and systemic arterial oxygen pressure (PaO2%) for and after treatment with VIP inhalation (200 μg in 12 ml 0.9% NaCl per day, 4×3 ml per inhalation) for 12 weeks. FEV1 (forced expiratory volume in one second), FVC (forced vital capacity), TLC (total lung capacity), AaDO2 (arterial-alveolar oxygen difference) of sarcoidosis patient is measured according to standard methods for and after treatment with VIP (200 μg in 12 ml 0.9% NaCl per day) for 12 weeks. VIP was inhaled for 12 weeks via the MicroDrop Master Jet (MPV, Truma, Germany) using a particle size of 3 μm to provide alveolar deposition of the substance.
(§2) Hemodynamic and lung function parameters of the sarcoidosis patient before and after the treatment with VIP for 12 weeks are summary in Table 2.

For test [2] the test system is unchanged. The test is described as follows: Lung function parameters before and after 12 weeks VIP inhalation. As to conditions: after treatment, VIP inhalation 200 μg per day. The procedure:
as §1, §2

The test system is the same in test [3]. The test is described as follows: 6-minutes walk test. The procedure: as §1
In the 6-minutes walk test, the patient improved from 210 meters before treatment to 350 meters after the treatment

In test [1] (after treatment, before treatment 2.1), “His-Ser-Asp-Ala-Val-Phe-Thr-Asp-Asn-Tyr-Thr-Arg-Leu-Arg-Lys-Gln-Met-Ala-Val-Lys-Lys-Tyr-Leu-Asn-Ser-Ile-Leu-Asn [VIP]” came in with a CI of 2.7. Also, in test [1] (after treatment, before treatment 3.9), the “CO (cardiac output)” value is 4.9. The “PaO2 (systemic arterial oxygen pressure)” value in test [1] (after treatment, before treatment 47.0) amounted to 54.0. Further, the “SvO2 (mixed venous oxygen saturation)” value in test [1] (after treatment, before treatment 49.4) is recorded as 53.0. In test [1] (after treatment, before treatment 55.0), this substance returned a PaCO2 of 52.0. For the same substance, the SaO2 in test [1] (after treatment, before treatment 83.2) was found to be 88.0. Further, the “mAP (mean arterial pressure)” value in test [1] (after treatment, before treatment 84.0) is 98.0. Moreover, the “PCWP (pulmonary capillary wedge pressure)” value is 10 in test [1] (first PCWP line of Table 2, after treatment, before treatment 10) and 7.0 in test [1] (second PCWP line of Table 2, after treatment, before treatment 6.0). Moreover, the PVR in test [1] (first PVR line of Table 2, after treatment, before treatment 923) was found to be 359; in test [1] (second PVR line of Table 2, after treatment, before treatment 985.0) it was 313.0. The “mPAP (mean pulmonary artery pressure)” value in test [1] (first mPAP line of Table 2, after treatment, before treatment 55) is reported as 32; in test [1] (second mPAP line of Table 2, after treatment, before treatment 54.0), 26.0. In addition, the FEV1 (forced expiratory volume in one second) in test [2] (before treatment 1.2) stood at 1.1 L. Besides, the “FVC (forced vital capacity)” value in test [2] (before treatment 1.4) is given as 1.3. The “TLC (total lung capacity)” value in test [2] (before treatment 2.3) was 2.7. In addition, the “AaDO2 (arterial-alveolar oxygen difference)” value in test [2] (before treatment 39.0) was determined as 37.0. Moreover, the “6-minutes walk test distance” value in test [3] (after the treatment with VIP for 12 weeks, 210 meters before treatment) worked out at 350 meters. Also, in test [3] (after treatment, VIP inhalation 200 μg per day, 12 weeks, before treatment 210), the 6-Min.WT came to 350.
